In patent US20050234531A1, “Method to treat age-related macular degeneration” (priority 2001, published 2005):

System: age-related macular degeneration (AMD)
Experiment: PDT with verteporfin combined with scatter threshold laser coagulation therapy in eighteen patients with AMD or early stage AMD
Format: in vivo
Method: Eighteen patients ranging in age from 50-80 years of age, and either previously diagnosed with AMD or with early stage AMD have been treated using the inventive method. All of these patients experienced at least some loss of vision pre-treatment.
For PDT, verteporfin was the photosensitive agent and was administered intravenously at a dose of 1-2 mg/kg. Verteporfin was activated using a coherent laser with the red beam (krypton) at a wavelength of 640 nm. For laser coagulation therapy, the spot size was 200 μm and the duration was 0.4 seconds. The number of spots applied was between 150 and 350. The interval between PDT and laser coagulation therapy was 5 minutes to 24 hours.

## verteporfin
Verteporfin 1-2 mg/kg intravenously, activated at 640 nm, plus laser coagulation therapy 5 minutes to 24 hours apart, within six to eight weeks post-treatment, 18 patients
  Patients with improved visual acuity, as assessed by accurate reading of a standard vision chart: fifty
Verteporfin PDT plus laser coagulation therapy, entire patient population treated
  Incidence of the need for retreatment: zero
Verteporfin PDT plus laser coagulation therapy, over six to nine months, 18 patients
  Patients whose vision remained stable, assessed by no further loss of visual acuity: fifty
Verteporfin PDT plus laser coagulation therapy, patients receiving the inventive treatment
  Cases of laser-induced neovascularizations: no cases
